According to US5849923A, “Heterocyclic-substituted naphthalenyl retinobenzoic acid derivatives” (Bristol-Myers Squibb Company, priority 1996, dated 1998):
Like-named read-outs stand apart in the source and are kept apart here.

Key:
[1] = tested on: L2987; experiment: Cytotoxicity assay (alamarBlue), lung line L2987, experiment 2; format: cell-based; details: Homo sapiens, read-out: IC50 values for L2987 experiment 2
Protocol: FIG. 1 is the cytotoxicity dose response curves for lung line L2987. […] Briefly, the assayed involved plating 1000 cells per well in a volume of 120 μL in a 96 well flat-bottom dish (Corning) on day -1. Twenty-four hours later the appropriate dilution of a compound of formula I was added in a volume of 30 μL complete medium (final volume 150 μL). The plates were sealed with a plate sealer (Dynatech Labs) to prevent evaporation. On day 5 the mylar film was removed and 15 μL of sterile alamarblue was added to each well and the cells were incubated 37° C. 5% CO2 for two hours. Using a Vmax plate reader the optical density for each well was determined having the […]. The 100% signal was determined for cells grown in complete medium containing only 0.5% DMSO. All wells were set-up in triplicate and the mean values were plotted in FIG. 1.

[2] = tested on: rhino mouse utriculi; experiment: Rhino mouse utriculi reduction assay; format: in vivo, hairless rhino mice (hr^rh /hr^rh); details: once daily for 5 days; for ED30 (concentration to reach 30% (half-maximum) utriculi reduction): topical in ethanol vehicle (50 μl), female rhino mice, 0.00033 mM to 16.5 mM; for activity in rhino mouse utriculi reduction model (in words): topical
Protocol: Representatives from compounds of formula I were tested for their effect on utriculi reduction on rhino mouse and directly compared to all-trans retinoic acid.
Six to nine week old female hairless rhino mice (hr^rh /hr^rh) were produced in the Bristol-Myers Squibb colony. Test retinoids in ethanol vehicle (50 μl) were applied to the dorsal area (approximately 1.5×3 cm^2) of rhino mice once daily for 5 days (Monday to Friday). For various retinoids, a dose response was obtained with concentrations ranging from 0.00033 mM to 16.5 mM. The animals were sacrificed on the following Monday by CO2 inhalation. A 7/8" full thickness punch was taken from the central dorsal area of each animal. The epidermis of the biopsy was removed from the dermis after incubation in 0.5% acetic acid overnight at 4° C. The separated epidermis was then fixed in formalin, dehydrated with ethanol, and cleared in xylene. To determine the utriculi diameter, each epidermis sheet was placed on a glass slide in xylene. For each specimen, the diameter of 40 utricules was measured with an image analysis system (IBM PC, Image Measure program and Olympus microscope with video camera). % Utriculi reduction was calculated as [formula]
Since the maximum effect in this assay is approximately 60% utriculi reduction, the activity of various test compounds is reported as ED30 in Table 1, the concentration to reach 30% (half-maximum) utriculi reduction.

[3] = tested on: squamous-cell carcinoma of the head and neck; details: Hong, W. K. et al., N. Engl. J. Med., 1990; cited from earlier work
[4] = 120 h, L2987, experiment 2, read on day 5, alamarBlue

CC1=C(/C=C/C(C)=C/C=C/C(C)=C/C(=O)O)C(C)(C)CCC1 [All trans retinoic acid, reference compound]
IC50 ([1]; L2987, 120 h): 68 µM

CC1(C)CC=C(c2cccs2)c2cc(C(=O)Nc3ccc(C(=O)O)cc3)ccc21 [I^2 a, 4-[[[[5,6-Dihydro-5,5-dimethvl-8-(2-thienyl)]-2naphthalenyl]carbonyl]amino]benzoic acid]
IC50 [1, 4]: 64 µM | ED30 (concentration to reach 30% (half-maximum) utriculi reduction) [2]: > 10000 µM

Cc1ccsc1C1=CCC(C)(C)c2ccc(C(=O)Nc3ccc(C(=O)O)cc3)cc21 [I^2 b]
IC50 [1, 4]: 50 µM

CC1(C)CC=C(c2ccoc2)c2cc(C(=O)Nc3ccc(C(=O)O)cc3)ccc21 [I^2 d, 4-[[[[5,6-Dihydro-5,5-dimethyl-8-(3-furyl)]-2-naphthalenyl]carbonyl]amino]benzoic acid]
activity in rhino mouse utriculi reduction model (in words) [2]: inactive

CC1(C)CC=C(c2ccsc2)c2cc(C(=O)Nc3ccc(C(=O)O)cc3)ccc21 [I^2 e, 4-[[[[5,6-Dihydro-5,5-dimethyl-8-(3-thienyl)]-2-naphthalenyl]carbonyl]amino]benzoic acid]
ED30 (concentration to reach 30% (half-maximum) utriculi reduction) [2]: 3890 µM

CC1(C)CC=C(c2cccnc2)c2cc(C(=O)Nc3ccc(C(=O)O)cc3)ccc21 [I^2 f, 4-[[[[5,6-Dihydro-5,5-dimethyl-8-(3-pyridinyl)]-2-naphthalenyl]carbonyl]amino]benzoic acid]
activity in rhino mouse utriculi reduction model (in words) [2]: inactive

Cn1cccc1C1=CCC(C)(C)c2ccc(C(=O)Nc3ccc(C(=O)O)cc3)cc21 [I^2 g, 4-[[[[5,6-Dihydro-5,5-dimethyl-8-(2-N-methylpyrolyl)]-2-naphthalenyl]carbonyl]amino]benzoic acid]
ED30 (concentration to reach 30% (half-maximum) utriculi reduction) [2]: 2070 µM

CC1=C(/C=C/C(C)=C/C=C/C(C)=C\C(=O)O)C(C)(C)CCC1 [Isotretinoin]
prevention of second primary tumors (in words) [3]: useful in prevention of second primary tumors
